Data: US11220504B2, “Pyrrolo[3,2-d] pyrimidine derivatives for the treatment of viral infections and other diseases” (JANSSEN SCIENCES IRELAND UNLIMITED COMPANY, priority 2012, dated 2022)

Key:
[1] = biological target: T1, human TLR7 (Homo sapiens, UniProt Q9NYK1); test: TLR7 cellular reporter assay (HEK293, NFκB-luc); format: cell-based; settings: HEK293 cells transfected with CMV-TLR7 and NFκB-luc, 6 hours incubation; lowest effective concentration
T1 construct: expressed in transfected cells; host or cells: HEK293 cells, transient transfection with CMV-TLR7 plasmid and NFκB-luc plasmid
T1 sequence (Q9NYK1 27-1049): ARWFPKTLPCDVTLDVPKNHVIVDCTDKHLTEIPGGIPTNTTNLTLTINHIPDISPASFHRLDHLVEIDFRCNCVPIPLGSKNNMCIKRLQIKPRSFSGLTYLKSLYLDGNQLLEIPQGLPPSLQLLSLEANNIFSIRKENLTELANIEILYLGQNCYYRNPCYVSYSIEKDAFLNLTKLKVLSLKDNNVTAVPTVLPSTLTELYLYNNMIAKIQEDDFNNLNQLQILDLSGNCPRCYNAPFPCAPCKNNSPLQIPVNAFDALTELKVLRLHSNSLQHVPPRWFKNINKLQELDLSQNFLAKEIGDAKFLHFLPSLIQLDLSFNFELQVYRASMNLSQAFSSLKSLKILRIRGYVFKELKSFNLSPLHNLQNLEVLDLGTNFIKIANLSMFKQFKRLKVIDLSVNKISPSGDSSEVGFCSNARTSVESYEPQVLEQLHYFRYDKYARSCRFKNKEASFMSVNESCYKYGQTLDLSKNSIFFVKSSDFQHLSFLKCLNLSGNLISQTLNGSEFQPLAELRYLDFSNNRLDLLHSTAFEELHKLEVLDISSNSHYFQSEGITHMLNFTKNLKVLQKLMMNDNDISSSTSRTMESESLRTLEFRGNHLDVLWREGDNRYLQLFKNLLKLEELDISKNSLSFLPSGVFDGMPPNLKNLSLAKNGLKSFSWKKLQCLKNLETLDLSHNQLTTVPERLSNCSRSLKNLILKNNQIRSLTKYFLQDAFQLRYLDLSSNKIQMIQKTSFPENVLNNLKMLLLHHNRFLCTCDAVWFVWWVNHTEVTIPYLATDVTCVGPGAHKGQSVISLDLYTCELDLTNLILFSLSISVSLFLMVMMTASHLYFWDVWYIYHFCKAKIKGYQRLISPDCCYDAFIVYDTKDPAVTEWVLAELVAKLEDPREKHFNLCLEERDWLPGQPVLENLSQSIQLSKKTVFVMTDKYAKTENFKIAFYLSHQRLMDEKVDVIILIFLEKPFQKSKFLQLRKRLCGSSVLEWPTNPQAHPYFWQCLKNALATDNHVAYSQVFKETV
How it was run: (§1)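 HEK293 cells transiently transfected with receptor expression vector plus NFκB-luciferase reporter, exposed to compound (added in 4% DMSO) for 6 hours at 37° C, 5% CO2. Luciferase activity measured by luminescence; dose-response curves from quadruplicate measurements.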

[2] = biological target: T2, human TLR8 (Homo sapiens, UniProt Q9NR97); test: TLR8 cellular reporter assay (HEK293, NFκB-luc); format: cell-based; settings: HEK293 cells transfected with CMV-TLR8 and NFκB-luc, 6 hours incubation; lowest effective concentration
T2 construct: expressed in transfected cells; host or cells: HEK293 cells, transient transfection with TLR8 plasmid and NFκB-luc plasmid
T2 sequence (Q9NR97 27-1041): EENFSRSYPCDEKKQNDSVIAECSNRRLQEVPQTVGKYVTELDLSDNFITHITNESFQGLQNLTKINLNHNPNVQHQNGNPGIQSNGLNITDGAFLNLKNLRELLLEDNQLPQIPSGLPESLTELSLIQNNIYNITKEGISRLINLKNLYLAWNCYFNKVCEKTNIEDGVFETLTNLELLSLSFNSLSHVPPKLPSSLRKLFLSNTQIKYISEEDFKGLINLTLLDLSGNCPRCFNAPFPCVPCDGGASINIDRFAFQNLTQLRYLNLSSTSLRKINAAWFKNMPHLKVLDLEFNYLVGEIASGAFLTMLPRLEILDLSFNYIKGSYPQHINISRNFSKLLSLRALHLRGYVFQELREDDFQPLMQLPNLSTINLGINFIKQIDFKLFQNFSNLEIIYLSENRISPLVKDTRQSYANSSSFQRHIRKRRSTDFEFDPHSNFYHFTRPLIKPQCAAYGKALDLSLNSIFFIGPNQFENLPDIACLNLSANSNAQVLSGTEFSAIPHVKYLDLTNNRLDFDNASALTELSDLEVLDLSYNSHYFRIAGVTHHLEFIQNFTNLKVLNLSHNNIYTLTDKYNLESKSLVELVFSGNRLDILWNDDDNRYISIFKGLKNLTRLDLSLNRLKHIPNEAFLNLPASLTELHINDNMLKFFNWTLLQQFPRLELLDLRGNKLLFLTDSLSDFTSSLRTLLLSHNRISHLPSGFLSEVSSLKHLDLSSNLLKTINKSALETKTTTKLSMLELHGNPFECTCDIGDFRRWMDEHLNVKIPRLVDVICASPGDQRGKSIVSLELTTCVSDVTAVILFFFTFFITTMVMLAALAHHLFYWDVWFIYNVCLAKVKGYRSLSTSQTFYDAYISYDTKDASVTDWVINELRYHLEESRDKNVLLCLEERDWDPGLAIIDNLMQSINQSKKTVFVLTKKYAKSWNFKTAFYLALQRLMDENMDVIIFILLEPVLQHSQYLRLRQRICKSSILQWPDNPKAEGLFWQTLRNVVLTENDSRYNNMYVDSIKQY
How it was run: as §1

[3] = system: interferon-stimulated responsive elements (ISRE); test: Activation of ISRE promoter elements by conditioned media from PBMC (HEK-ISREluc); format: cell-based, human; settings: Homo sapiens; conditioned media from PBMC transferred to HEK-ISREluc cells, 24 hours; lowest effective concentration; read-out: PBMC LEC
How it was run: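 Human PBMCs (≥2 donors, RPMI + 10% human AB serum, 2×10^5 cells/well) incubated overnight with compound; supernatant transferred to HEK293 cells stably carrying pISRE-Luc for 24 h, then luciferase read. LEC = compound concentration on PBMCs giving luciferase signal at least two-fold above assay SD; recombinant IFN-α-2a standard.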

Row | TLR7 LEC [1] [µM] | TLR8 LEC [2] [µM] | Compound | minimal effective concentration [3] [µM]
1 | 0.032 | >25 | COCCNc1nc(N)nc2ccn(Cc3ccccc3OC)c12 [Compound 103] | 0.018
2 | 22.43 | >25 | Cn1ccc(CNc2nc(N)nc3ccn(Cc4ccccc4)c23)n1 [Compound 49] | 2.34
3 | 0.14 | >25 | Cc1cc(CNc2nc(N)nc3ccn(Cc4ncccn4)c23)no1 [Compound 186] | 0.035
4 | 4.78 | >25 | Cc1cc(CNc2nc(N)nc3ccn(Cc4ccccn4)c23)nn1C [Compound 187] | 0.52
5 | <0.01 | 7.7 | COc1ccccc1Cn1ccc2nc(N)nc(NCc3noc(C)n3)c21 [Compound 205] | 0.001
6 | 0.91 | >25 | COCCNc1nc(N)nc2ccn(Cc3ccccc3)c12 [Compound 34] | 0.54
7 | 0.827 | >25 | COCCn1ccc2nc(N)nc(NC(C)c3ccccn3)c21 (stereo not drawn) [Compound 105] | 0.194
8 | 1.01 | >25 | CCCCNc1nc(N)nc2ccn(Cc3cc4ccccc4cn3)c12 [Compound 50] | 0.13
9 | 0.03 | 10.14 | CCC[C@@H](CCO)Nc1nc(N)nc2ccn(Cc3cscn3)c12 [Compound 85] | 0.002
10 | 0.74 | 15 | COC[C@H](C)Nc1nc(N)nc2ccn(Cc3csc(C)n3)c12 [Compound 206] | 0.129
11 | 17.5 | >25 | CC(C)=CCNc1nc(N)nc2ccn(Cc3ccccc3)c12 [Compound 47] | 1.79
12 | 8.07 | >25 | COCCNc1nc(N)nc2ccn(C[C@H]3CCCO3)c12 [Compound 160] | 1.81
13 | 0.49 | 1.7 | CCCCNc1nc(N)nc2ccn(CCCC)c12 [Compound 8] | 0.15
14 | 0.04 | 1.14 | CCCC[C@@H](CCO)Nc1nc(N)nc2ccn(CC3CCC3)c12 [Compound 84] | 0.01
15 | 0.002 | >25 | COc1ccccc1Cn1ccc2nc(N)nc(NCc3cc(C)on3)c21 [Compound 110] | 0.001
16 | <0.01 | >25 | COc1ccccc1Cn1ccc2nc(N)nc(NCc3ncc(C)s3)c21 [Compound 215] | 0.001
17 | 1.5 | 3.5 | CCCCNc1nc(N)nc2ccn(CCc3ccccc3)c12 [Compound 11] | 0.56

Row | TLR7 LEC [1] [µM] | TLR8 LEC [2] [µM] | Compound | minimal effective concentration [3] [µM]
18 | 5.14 | >25 | CC(C)CCNc1nc(N)nc2ccn(Cc3ccccc3)c12 [Compound 51] | 0.59
19 | <0.01 | 0.1 | CCCC[C@@H](CCO)Nc1nc(N)nc2ccn(Cc3c(OC)cccc3OC)c12 [Compound 99] | < 0.001
20 | 0.02 | >25 | COc1cc(OC)nc(Cn2ccc3nc(N)nc(NCc4ncc(C)o4)c32)n1 [Compound 210] | 0.003
21 | 0.01 | 12.6 | COc1cccnc1Cn1ccc2nc(N)nc(NCc3noc(C)n3)c21 [Compound 196] | 0.002
22 | 0.54 | >25 | CC[C@H](C)[C@@H](CO)Nc1nc(N)nc2ccn(Cc3ccccc3)c12 [Compound 38] | 0.63
23 | 7.30 | >25 | COCCn1ccc2nc(N)nc(NC(C)c3cccnc3)c21 (stereo not drawn) [Compound 201] | 0.978
24 | 0.39 | >25 | Cc1nc(Cn2ccc3nc(N)nc(NC(C)c4ccccn4)c32)cs1 (stereo not drawn) [Compound 197] | 0.04
25 | 1.06 | >25 | Nc1nc(NCCCO)c2c(ccn2Cc2ccccc2)n1 [Compound 36] | 0.59
26 | 0.741 | >25 | Cc1cc(CNc2nc(N)nc3ccn(Cc4ccncc4)c23)no1 [Compound 112] | 0.209
27 | 0.01 | 4.09 | CCCC[C@@H](CCO)Nc1nc(N)nc2ccn(Cc3ccccc3F)c12 [Compound 76] | 0.007
28 | 1.04 | >25 | Cc1nc(CNc2nc(N)nc3ccn(Cc4ncccn4)c23)no1 [Compound 203] | 0.138
29 | 0.99 | 17.5 | CCCCNc1nc(N)nc2ccn(Cc3ncccn3)c12 [Compound 56] | 0.07
30 | 0.09 | >25 | COc1ccnc(Cn2ccc3nc(N)nc(NCc4cc(C)on4)c32)c1OC [Compound 168] | 0.011
31 | 5.14 | >25 | COCc1nc(CNc2nc(N)nc3ccn(Cc4ccccn4)c23)no1 [Compound 208] | 0.402
32 | 0.005 | 7.17 | CCC[C@@H](CCO)Nc1nc(N)nc2ccn(Cc3cccc(OC)c3)c12 [Compound 109] | 0.003
33 | 0.12 | >25 | CCCCNc1nc(N)nc2ccn(CC3CCCCC3)c12 [Compound 52] | 0.09
34 | 0.004 | 0.94 | CCCC(C)Nc1nc(N)nc2ccn(Cc3ccccc3OC)c12 (stereo not drawn) [Compound 79] | 0.001
